ChEMBL document CHEMBL1123642, “Design and synthesis of phosphonate inhibitors of glutamine synthetase” (J Med Chem, 1987)

Tests used:
[1] = test system: glutamine synthetase (Pisum sativum); experiment: Tested for the inhibition of Glutamine synthetase (Pea seed) activity using biosynthetic assay [[…] (pH 7), 5 mM MgCl2] at a concentration of 0.1 mM; details: Lathyrus oleraceus
[2] = test system: glutamine synthetase (Pisum sativum); experiment: Tested for the inhibition of Glutamine synthetase (Pea seed) activity using biosynthetic assay [[…] (pH 7), 5 mM MgCl2] at a concentration of 1.0 mM; details: Lathyrus oleraceus
[3] = test system: glutamine synthetase (Pisum sativum); experiment: Tested for the inhibition of Glutamine synthetase (Pea seed) activity using biosynthetic assay [[…] (pH 7), 5 mM MgCl2] at a concentration of 10.0 mM; details: Lathyrus oleraceus
[4] = test system: glutamine synthetase (Ovis aries); experiment: Tested for the inhibition of Glutamine synthetase (Ovine brain) activity using biosynthetic assay [[…] (pH 7), 5 mM MgCl2] at a concentration of 0.1 mM
[5] = test system: glutamine synthetase (Ovis aries); experiment: Tested for the inhibition of Glutamine synthetase (Ovine brain) activity using biosynthetic assay [[…] (pH 7), 5 mM MgCl2] at a concentration of 1.0 mM
[6] = test system: glutamine synthetase (Ovis aries); experiment: Tested for the inhibition of Glutamine synthetase (Ovine brain) activity using biosynthetic assay [[…] (pH 7), 5 mM MgCl2] at a concentration of 10.0 mM
[7] = biological target: glutamine synthetase (Escherichia coli) (UniProt P0A9C5); experiment: Tested for the inhibition of Glutamine synthetase (Escherichia coli) activity using biosynthetic assay [[…] (pH 7), 5 mM MgCl2] at a concentration of 0.1 mM
[8] = biological target: glutamine synthetase (Escherichia coli) (UniProt P0A9C5); experiment: Tested for the inhibition of Glutamine synthetase (Escherichia coli) activity using biosynthetic assay [[…] (pH 7), 5 mM MgCl2] at a concentration of 1.0 mM
[9] = biological target: glutamine synthetase (Escherichia coli) (UniProt P0A9C5); experiment: Tested for the inhibition of Glutamine synthetase (Escherichia coli) activity using biosynthetic assay [[…] (pH 7), 5 mM MgCl2] at a concentration of 10.0 mM
[10] = test system: glutamine synthetase (Pisum sativum); experiment: Tested for the inhibition of Glutamine synthetase (Pea seed) activity using Gamma-glutamyl transferase assay [[…] (pH 7), 5 mM MgCl2] at a concentration of 1.0 mM; details: Lathyrus oleraceus
[11] = test system: glutamine synthetase (Pisum sativum); experiment: Tested for the inhibition of Glutamine synthetase (Pea seed) activity using Gamma-glutamyl transferase assay [[…] (pH 7), 5 mM MgCl2] at a concentration of 0.1 mM; details: Lathyrus oleraceus
[12] = test system: glutamine synthetase (Pisum sativum); experiment: Tested for the inhibition of Glutamine synthetase (Pea seed) activity using Gamma-glutamyl transferase assay [[…] (pH 7), 5 mM MgCl2] at a concentration of 10.0 mM; details: Lathyrus oleraceus
[13] = test system: glutamine synthetase (Ovis aries); experiment: Tested for the inhibition of Glutamine synthetase (Ovine brain) activity using Gamma-glutamyl transferase assay [[…] (pH 7), 5 mM MgCl2] at a concentration of 0.1 mM
[14] = test system: glutamine synthetase (Ovis aries); experiment: Tested for the inhibition of Glutamine synthetase (Ovine brain) activity using Gamma-glutamyl transferase assay [[…] (pH 7), 5 mM MgCl2] at a concentration of 1.0 mM
[15] = test system: glutamine synthetase (Ovis aries); experiment: Tested for the inhibition of Glutamine synthetase (Ovine brain) activity using Gamma-glutamyl transferase assay [[…] (pH 7), 5 mM MgCl2] at a concentration of 10.0 mM
[16] = biological target: glutamine synthetase (Escherichia coli) (UniProt P0A9C5); experiment: Tested for the inhibition of Glutamine synthetase (Escherichia coli) activity using Gamma-glutamyl transferase assay [[…] (pH 7), 5 mM MgCl2] at a concentration of 0.1 mM
[17] = biological target: glutamine synthetase (Escherichia coli) (UniProt P0A9C5); experiment: Tested for the inhibition of Glutamine synthetase (Escherichia coli) activity using Gamma-glutamyl transferase assay [[…] (pH 7), 5 mM MgCl2] at a concentration of 1.0 mM
[18] = biological target: glutamine synthetase (Escherichia coli) (UniProt P0A9C5); experiment: Tested for the inhibition of Glutamine synthetase (Escherichia coli) activity using Gamma-glutamyl transferase assay [[…] (pH 7), 5 mM MgCl2] at a concentration of 10.0 mM
[19] = test system: glutamine synthetase (Pisum sativum); experiment: Tested for the inhibition of Glutamine synthetase(Pea seed) activity using Gamma-glutamyl transferase assay [[…] (pH 7), 5 mM MgCl2] at a concentration of 10.0 mM; details: Lathyrus oleraceus
[20] = test system: glutamine synthetase (Pisum sativum); experiment: Tested for the inhibition of Glutamine synthetase (Pea seed) activity using biosynthetic assay [[…] (pH 7), 5 mM MgCl2] at a concentration of 0 mM; details: Lathyrus oleraceus
[21] = test system: glutamine synthetase (Ovis aries); experiment: Tested for the inhibition of Glutamine synthetase (Ovine brain) activity using biosynthetic assay [[…] (pH 7), 5 mM MgCl2] at a concentration of 0 mM
[22] = biological target: glutamine synthetase (Escherichia coli) (UniProt P0A9C5); experiment: Tested for the inhibition of Glutamine synthetase (Escherichia coli) activity using biosynthetic assay [[…] (pH 7), 5 mM MgCl2] at a concentration of 0 mM
[23] = test system: glutamine synthetase (Pisum sativum); experiment: Tested for the inhibition of Glutamine synthetase (Pea seed) activity using Gamma-glutamyl transferase assay [[…] (pH 7), 5 mM MgCl2] at a concentration of 0 mM; details: Lathyrus oleraceus
[24] = test system: glutamine synthetase (Ovis aries); experiment: Tested for the inhibition of Glutamine synthetase (Ovine brain) activity using Gamma-glutamyl transferase assay [[…] (pH 7), 5 mM MgCl2] at a concentration of 0 mM
[25] = biological target: glutamine synthetase (Escherichia coli) (UniProt P0A9C5); experiment: Tested for the inhibition of Glutamine synthetase (Escherichia coli) activity using Gamma-glutamyl transferase assay [[…] (pH 7), 5 mM MgCl2] at a concentration of 0 mM

glutamine synthetase (Escherichia coli), sequence (P0A9C5 whole entry, looked up): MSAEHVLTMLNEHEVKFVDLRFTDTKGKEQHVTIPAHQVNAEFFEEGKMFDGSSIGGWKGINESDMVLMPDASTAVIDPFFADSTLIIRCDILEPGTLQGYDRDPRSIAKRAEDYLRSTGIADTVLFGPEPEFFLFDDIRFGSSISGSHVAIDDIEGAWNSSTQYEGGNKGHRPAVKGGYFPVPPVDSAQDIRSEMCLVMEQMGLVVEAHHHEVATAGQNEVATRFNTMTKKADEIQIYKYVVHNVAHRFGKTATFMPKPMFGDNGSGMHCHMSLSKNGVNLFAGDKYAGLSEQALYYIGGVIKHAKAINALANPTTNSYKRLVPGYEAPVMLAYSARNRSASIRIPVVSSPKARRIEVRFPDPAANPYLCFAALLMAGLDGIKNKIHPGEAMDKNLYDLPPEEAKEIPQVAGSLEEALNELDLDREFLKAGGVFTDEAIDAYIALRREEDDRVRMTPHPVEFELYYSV

Relative activity [1]	Relative activity [2]	Relative activity [3]	Relative activity [4]	Relative activity [5]	Relative activity [6]	Relative activity [7]	Relative activity [8]	Relative activity [9]	Relative activity [10]	Relative activity [11]	Relative activity [12]	Relative activity [13]	Relative activity [14]	Relative activity [15]	Relative activity [16]	Relative activity [17]	Relative activity [18]	SMILES	further results
1.1	1.1	0.75	1.2	1.2	1	1.2	1.2	0.95	0.9	0.9	1	1	1	1.2	1	1	1.5	CC(N)(CC[S+]([O-])CP(=O)(O)O)C(=O)O (stereo not given)	–
1.1	0.8	0.85	1.2	1	1	1.1	1	1	0.9	0.8	–	0.95	0.9	0.8	1.1	1.1	1	CC(N)(CCS(=O)(=O)CP(=O)(O)O)C(=O)O (stereo not given)	Relative activity [19]: 0.9
1	1.2	0.5	1	1	1.2	1	1.95	1.25	1	1	1	1	1	1.1	1.1	1.4	1.5	CC(N)(CCSCP(=O)(O)O)C(=O)O (stereo not given)	Relative activity [20]: 1; Relative activity [21]: 1; Relative activity [22]: 1; Relative activity [23]: 1; Relative activity [24]: 1; Relative activity [25]: 1
